The target in this experiment is T1, human CB2R (Homo sapiens, UniProt P34972).
T1 construct: host or cells: CHO cells
T1 sequence (P34972 whole entry): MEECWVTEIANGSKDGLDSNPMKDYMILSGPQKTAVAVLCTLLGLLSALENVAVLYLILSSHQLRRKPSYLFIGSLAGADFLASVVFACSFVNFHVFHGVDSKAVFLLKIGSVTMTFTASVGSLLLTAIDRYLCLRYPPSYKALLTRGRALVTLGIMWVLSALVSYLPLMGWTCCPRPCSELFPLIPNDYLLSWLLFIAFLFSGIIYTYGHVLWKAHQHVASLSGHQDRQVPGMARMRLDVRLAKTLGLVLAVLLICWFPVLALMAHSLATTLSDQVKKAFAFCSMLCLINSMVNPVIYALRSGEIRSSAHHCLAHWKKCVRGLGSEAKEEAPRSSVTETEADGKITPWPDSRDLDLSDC
The experiment is described as follows: CB2R mediated modulation of cAMP synthesis. In kind it is cell-based. The note with it: CHO cells expressing human CB2R; concentration at which 50% of the forskolin-stimulated cAMP synthesis was inhibited; 100% defined by 1 uM CP55940; read-out: CB2 EC50. The procedure:
B. CB2R Mediated Modulation of Camp Synthesis:
Compounds of the invention were evaluated for their CB2 agonist or inverse agonistic activity in accordance with the following experimental method.
CHO cells expressing human CB2R (Euroscreen) were plated at a density of 5000 cells per well in 384 well plates and incubated overnight at 37° C. After removing the media, the cells were treated with test compounds diluted in stimulation buffer containing 1 mM IBMX, 0.25% BSA and 10 uM Forskolin. The assay was incubated for 30 minutes at 37° C. Cells were lysed and the cAMP concentration was measured using DiscoverX-XS cAMP kit, following the manufacturer's protocol. In this setting, agonists will decrease forskolin induced production of cAMP while inverse agonists will further increase forskolin induced production of cAMP. EC50 of agonists were calculated as follows. The maximal amount of cAMP produced by forskolin compared to the level of cAMP inhibited by 1 uM CP55940 is defined as 100%. The EC50 value of each test compound was determined as the concentration at which 50% of the forskolin-stimulated cAMP synthesis was inhibited. Data was analyzed using a four-parameter logistic model. (Model 205 of XLfit 4.0).
Regarding `Cn1nc(C(C)(C)C)cc1-c1coc(C(C)(C)S(=O)(=O)c2ccc(Cl)cc2)n1` [Example 1, 4-(5-tert-butyl-2-methyl-2H-pyrazol-3-yl)-2-[1-(4-chloro-benzenesulfonyl)-1-methyl-ethyl]-oxazole], the EC50 came to 0.92 nM.
Take `Cn1nc(C(C)(C)C)cc1-c1coc(C(C)(C)S(=O)(=O)c2ccc(F)cc2)n1` [Example 2, 4-(5-tert-butyl-2-methyl-2H-pyrazol-3-yl)-2-[1-(4-fluoro-benzenesulfonyl)-1-methyl-ethyl]-oxazole]: the 50% effective concentration (EC50) amounted to 0.35 nM.
In the case of `Cn1nc(C(C)(C)C)cc1-c1coc(C(C)(C)S(=O)(=O)c2ccc(Cl)cc2F)n1` [Example 3, 4-(5-tert-butyl-2-methyl-2H-pyrazol-3-yl)-2-[1-(4-chloro-2-fluoro-benzenesulfonyl)-1-methyl-ethyl]-oxazole], the EC50 turned out to be 3.9 nM.
Next, `Cc1ccc(S(=O)(=O)C(C)(C)c2nc(-c3cc(C(C)(C)C)nn3C)co2)cc1` [Example 4, 4-(5-tert-butyl-2-methyl-2H-pyrazol-3-yl)-2-[1-methyl-1-(toluene-4-sulfonyl)-ethyl]-oxazole]: 12 nM; `Cn1nc(C(C)(C)C)cc1-c1coc(C(C)(C)S(=O)(=O)CC2CCOCC2)n1` [Example 5, 4-(5-tert-butyl-2-methyl-2H-pyrazol-3-yl)-2-[1-methyl-1-(tetrahydro-pyran-4-ylmethanesulfonyl)-ethyl]-oxazole]: 145 nM.
Next, `Cn1nc(C(C)(C)C)cc1-c1coc(C(C)(C)S(=O)(=O)C2CCCCC2)n1` [Example 6, 4-(5-tert-butyl-2-methyl-2H-pyrazol-3-yl)-2-(1-cyclohexanesulfonyl-1-methyl-ethyl)-oxazole]: 371 nM; `CC(C)(C)c1cc(-c2coc(C(C)(C)S(=O)(=O)c3ccc(Cl)cc3)n2)no1` [Example 7, 5-tert-butyl-3-{2-[1-(4-chloro-benzenesulfonyl)-1-methyl-ethyl]-oxazol-4-yl}-isoxazole]: 0.9 nM; `Cn1nc(C(C)(C)C)cc1-c1cnc(C(C)(C)S(=O)(=O)c2ccc(Cl)cc2)o1` [Example 8, 5-(5-tert-butyl-2-methyl-2H-pyrazol-3-yl)-2-[1-(4-chloro-benzenesulfonyl)-1-methyl-ethyl]-oxazole]: 22 nM.
Next, `Cn1nc(C(C)(C)C)cc1-c1cnc(C(C)(C)S(=O)(=O)c2ccc(F)cc2)o1` [Example 9, 5-(5-tert-butyl-2-methyl-2H-pyrazol-3-yl)-2-[1-(4-fluoro-benzenesulfonyl)-1-methyl-ethyl]-oxazole]: 5.8 nM.
As for `Cn1nc(C(C)(C)C)cc1-c1nnc(C(C)(C)S(=O)(=O)c2ccc(Cl)cc2)[nH]1` [Example 12, 3-(5-tert-butyl-2-methyl-2H-pyrazol-3-yl)-5-[1-(4-chloro-benzenesulfonyl)-1-methyl-ethyl]-4H-[1,2,4]triazole], the half-maximal effective concentration (EC50) was found to be 12 nM.
The value for `CC(C)(C)c1cc(-c2nnc(C(C)(C)S(=O)(=O)CC3CCOCC3)[nH]2)on1` [Example 14, 3-(3-tert-butyl-isoxazol-5-yl)-5-[1-methyl-1-(tetrahydro-pyran-4-ylmethanesulfonyl)-ethyl]-4H-[1,2,4]triazole] was 159 nM.
Next, `CC(C)(c1nc(C2CCCCC2)no1)S(=O)(=O)c1ccc(C(F)(F)F)cc1` [Example 16, 3-cyclohexyl-5-[1-methyl-1-(4-trifluoromethyl-benzenesulfonyl)-ethyl]-[1,2,4]oxadiazole]: 12 nM; `Cn1nc(C(C)(C)C)cc1-c1nc(C(C)(C)S(=O)(=O)c2ccc(Cl)cc2)no1` [Example 18, 5-(5-tert-butyl-2-methyl-2H-pyrazol-3-yl)-3-[1-(4-chloro-benzenesulfonyl)-1-methyl-ethyl]-[1,2,4]oxadiazole]: 2.7 nM.
Next, `Cn1nc(C(C)(C)C)cc1-c1nc(C(C)(C)S(=O)(=O)CC2CCOCC2)no1` [Example 19, 5-(5-tert-butyl-2-methyl-2H-pyrazol-3-yl)-3-[1-methyl-1-(tetrahydro-pyran-4-ylmethanesulfonyl)-ethyl]-[1,2,4]oxadiazole]: 9.2 nM.
`CC(C)(C)c1cc(-c2nnc(C(C)(C)S(=O)(=O)c3ccc(Cl)cc3)o2)on1` [Example 22, 2-(3-tert-butyl-isoxazol-5-yl)-5-[1-(4-chloro-benzenesulfonyl)-1-methyl-ethyl]-[1,3,4]oxadiazole]: the EC50 came out at 5.3 nM.
The value for `CC(C)(C)c1cc(-c2nnc(C(C)(C)S(=O)(=O)CC3CCOCC3)o2)on1` [Example 24, 2-(3-tert-butyl-isoxazol-5-yl)-5-[1-methyl-1-(tetrahydro-pyran-4-ylmethanesulfonyl)-ethyl]-[1,3,4]oxadiazole] was 48 nM; that for `CC(C)(C)c1cc(-c2nnc(C(C)(C)S(=O)(=O)c3ccc(Cl)cc3)o2)no1` [Example 25, 2-(5-tert-butyl-isoxazol-3-yl)-5-[1-(4-chloro-benzenesulfonyl)-1-methyl-ethyl]-[1,3,4]oxadiazole] was 6.9 nM; that for `Cn1nc(C(C)(C)C)cc1-c1nnc(C(C)(C)S(=O)(=O)c2ccc(Cl)cc2)o1` [Example 26, 2-(5-tert-butyl-2-methyl-2H-pyrazol-3-yl)-5-[1-(4-chloro-benzenesulfonyl)-1-methyl-ethyl]-[1,3,4]oxadiazole] was 9 nM.
The value for `CC(C)(C)c1cc(-c2nnc(C(C)(C)S(=O)(=O)c3ccc(F)cc3)o2)no1` [Example 27, 2-(5-tert-butyl-isoxazol-3-yl)-5-[1-(4-fluoro-benzenesulfonyl)-1-methyl-ethyl]-[1,3,4]oxadiazole] was 35 nM; that for `Cn1nc(C(C)(C)C)cc1-c1nnc(C(C)(C)S(=O)(=O)c2ccc(F)cc2)o1` [Example 28, 2-(5-tert-butyl-2-methyl-2H-pyrazol-3-yl)-5-[1-(4-fluoro-benzenesulfonyl)-1-methyl-ethyl]-[1,3,4]oxadiazole] was 16 nM.
Next, `CC(C)(C)c1cc(-c2nnc(C(C)(C)S(=O)(=O)C3CCOCC3)o2)on1` [Example 29, 2-(3-tert-butyl-isoxazol-5-yl)-5-[1-methyl-1-(tetrahydro-pyran-4-sulfonyl)-ethyl]-[1,3,4]oxadiazole]: 27 nM.
Take `CC(C)(C)c1cc(-c2nnc(C(C)(C)S(=O)(=O)Cc3ccc(F)cc3)o2)on1` [Example 31, 2-(3-tert-butyl-isoxazol-5-yl)-5-[1-(4-fluoro-phenylmethanesulfonyl)-1-methyl-ethyl]-[1,3,4]oxadiazole]: the EC50 worked out at 162 nM.
Next, `Cn1nc(C(C)(C)C)cc1-c1nnc(C2(S(=O)(=O)c3ccc(Cl)cc3)CC2)o1` [Example 32, 2-(5-tert-butyl-2-methyl-2H-pyrazol-3-yl)-5-[1-(4-chloro-benzenesulfonyl)-cyclopropyl]-[1,3,4]oxadiazole]: 3.7 nM.
Turning to `CC(C)(C)c1cc(-c2noc(C(C)(C)S(=O)(=O)c3ccc(F)cc3)n2)on1` [Example 34, 3-(3-tert-butyl-isoxazol-5-yl)-5-[1-(4-fluoro-benzenesulfonyl)-1-methyl-ethyl]-[1,2,4]oxadiazole], the EC50 was 1.8 nM.
Consider `CC(C)(C)c1cc(-c2noc(C(C)(C)S(=O)(=O)c3ccc(C(F)(F)F)cc3)n2)on1` [Example 35, 3-(3-tert-butyl-isoxazol-5-yl)-5-[1-methyl-1-(4-trifluoromethyl-benzenesulfonyl)-ethyl]-[1,2,4]oxadiazole], for which the EC50 worked out at 5.9 nM.
